≈ marks a conversion by molar mass, not a printed value.
Assays:
[1] = cited from earlier work
[2] = Equilibrium aqueous solubility of cilostazol in simulated intestinal fluid with solubilizers; type: physicochemical
Method: Solutions of simulated intestinal fluid without enzyme (USP 26, pH 6.8) were prepared over a range of solubilizer concentrations. Excess cilostazol was added and equilibrated with gentle mixing at controlled temperature (37±0.5° C.). The aqueous solutions with excess drug were then filtered ([…] nominal pore size) and the clear filtrate was diluted and assayed by HPLC for cilostazol concentrations.

[3] = immediate release tablet dosage form; high fat meal; cited from earlier work

SMILES | equilibrium solubility of the acid addition HCl salt [1] | pKa [1] | water solubility [1] | aqueous solubility at low pH ([1]; low pH, limited by relatively insoluble hydrochloric acid addition salt) | solubility enhancement of cilostazol ([2]; Cremphor RH40 at 0.05% w/v) [%] | solubility enhancement of cilostazol ([2]; Cremphor RH40 at 1% w/v) [fold] | increase in solubility of cilostazol over its intrinsic aqueous solubility ([2]; d-a-tocopherol polyethylene glycol 1000 succinate at 0.05% w/v) [%] | increase in solubility of cilostazol over its intrinsic aqueous solubility ([2]; d-a-tocopherol polyethylene glycol 1000 succinate at 1% w/v) [fold] | solubility ([2]; simulated intestinal fluid without enzyme (USP 26), fassgf or other biorelevant, thermodynamic from solid, SIF without enzyme pH 6.8, 37 °C, no solubilizer, read-out: intrinsic solubility of cilostazol) [µg/mL] | AUC increase [3] | Cmax increase [3]
COc1ccccc1OCCNCC(O)COc1cccc2[nH]c3ccccc3c12 (centres unmarked) [Carvedilol] | about 1 mg/ml | about 7.6 | less than 0.001 mg/ml | less than 1 mg/ml |  |  |  |  |  |  | 
O=C1CCc2cc(OCCCCc3nnnn3C3CCCCC3)ccc2N1 [cilostazol] |  |  |  |  | ~30 | ~5 | ~60 | ~10 | 6.5 (≈ 17.6 µM) | about 25% | about 90%

From patent publication US20200069805A1, “PHARMACEUTICAL COMPOSITIONS WITH SYNCHRONIZED SOLUBILIZER RELEASE” (Lipocine Inc., priority 2003, published 2020)
